The source of these data is patent US20100022584A1, “Modulation of Glutamine Synthetase Activity” (priority 2006, published 2010).

Residue numbers refer to the chain shown, from its start.

In test [1] the target is T1, deadenylylated WT enzyme, WT (DD) glutamine synthetase (Escherichia coli, UniProt P0A9C5).
T1 construct: made in house; host or cells: E. coli carrying pBSK-ECgln (pBluescript II SK+), continuous culture; YMC11 is the expression strain named for this plasmid
T1 sequence (P0A9C5 2-469 limits assumed): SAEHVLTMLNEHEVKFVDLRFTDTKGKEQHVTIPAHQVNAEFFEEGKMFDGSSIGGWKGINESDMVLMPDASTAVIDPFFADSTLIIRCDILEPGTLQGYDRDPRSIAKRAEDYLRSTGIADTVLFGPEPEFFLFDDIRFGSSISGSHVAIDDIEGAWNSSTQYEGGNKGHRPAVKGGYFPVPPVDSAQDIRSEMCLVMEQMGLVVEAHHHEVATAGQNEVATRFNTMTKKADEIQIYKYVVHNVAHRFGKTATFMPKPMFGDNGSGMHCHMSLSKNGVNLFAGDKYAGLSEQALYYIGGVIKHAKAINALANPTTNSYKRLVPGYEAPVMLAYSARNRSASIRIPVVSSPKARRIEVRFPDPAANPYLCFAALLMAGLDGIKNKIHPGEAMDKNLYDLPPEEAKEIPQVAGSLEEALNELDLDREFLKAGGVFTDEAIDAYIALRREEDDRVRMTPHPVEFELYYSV
Put plainly: HPLC forward-reaction glutamine synthetase assay with serine protease inhibitors. Format: biochemical, E. coli. The settings on record: 1 mM inhibitor; for % Reduction in ADP-based Specific Activity / % Reduction in Glutamine-based Specific Activity: 60 min pre-incubation, vs no-inhibitor control, positive = activity increased; for % Conversion: glutamine-based divided by ADP-based specific activity. As to the method: (§1) This assay was set up to measure glutamine synthetase activity according to the forward reaction, and measures the amount of glutamine formed from […] of L-glutamate in the presence of MnCO3-ATP (the basis of one reaction) and MgATP (the basis of a second reaction). In addition, the amount of ADP formed is also measured in a separate assay, using the same reagents.
(§2) All enzyme preparations were adjusted to the same concentration of protein, and added to the assay mixture in a volume of 50 μl. The addition of the enzyme started the reaction, which was then allowed to proceed for 1 hour. The reaction was stopped by the addition of 6 μl of a 50% solution of trichloroacetic acid. Each assay was then aliquoted into 4 HPLC vials (150 μl per vial), two of which were assayed for glutamate and glutamine using a Phenomenex Luna 5 μC18 Column on an Agilent 100 HPLC instrument. The ATP/ADP assays were run on a Chromolith Performance RP-18c column also using an Agilent 100 HPLC instrument.
(§3) As it is believed that two putative catalytic triads, similar to those in the serine proteases, are involved in the reaction mechanism of glutamine synthetase, certain of the mutants were also assayed by HPLC in the presence of the serine protease inhibitors, AEBSF and PMSF, in order to assess the effect that these inhibitors had on the enzyme. The enzymes assessed were the adenylylated WT enzyme, the deadenylylated WT enzyme, and the mutant enzymes S52A, S52A Y397V, S53A, S53A Y397V, S52A S53A and S52A S53A Y397V. The enzymes were pre-incubated for 60 minutes in the presence of 1 mM PMSF or 1 mM AEBSF. A control reaction was set up for each enzyme, which contained no inhibitor. Each enzyme was then added to assays set up as described above. The assay was allowed to proceed for 60 minutes, then stopped by the addition of […] of 50% TCA, after which they were analysed by HPLC. All assays were run in triplicate.
(§4) In addition to the γ-glutamyl transferase assays, assays were also developed to measure the rate of conversion of ATP and glutamate to ADP and glutamine by HPLC. These were set up as single assays but analysed separately for glutamate and glutamine and ATP and ADP. The conversion rates for glutamate to glutamine, in both the presence of Mn^2+ and Mg^2+ by glutamine synthetase, is referred to as the […] specific activity and is presented in μmoles/min/mg protein. The conversion rates for ATP to ADP, in both the presence of Mn^2+ and Mg^2+ by glutamine synthetase, is referred to as the ADP-based specific activity and is presented in μmoles/min/mg protein. The percentage of conversion was also calculated by dividing the glutamine-based specific activity by the ADP-based specific activity, and this value is interpreted as the ability of the enzyme to complete both steps of the reaction, i.e., glutamate to glutamine and ATP to ADP, at an equivalent level of efficiency.

The target of test [2] is T2, glutamine synthetase mutant S53A (Escherichia coli, UniProt P0A9C5, S54A).
T2 construct: made in house; host or cells: E. coli YMC11 (glutamine synthetase auxotroph), pBluescript II SK+
T2 sequence (P0A9C5 2-469 S54A limits assumed): T1 sequence (P0A9C5 2-469 limits assumed) with S53A
The test is described as above. Format: biochemical, E. coli. The settings on record: 1 mM inhibitor; for inhibition of the enzyme (in words): HPLC assays; for % Reduction in ADP-based Specific Activity / % Reduction in Glutamine-based Specific Activity: 60 min pre-incubation, vs no-inhibitor control, positive = activity increased; for % Conversion: glutamine-based divided by ADP-based specific activity. As to the method:
as §1, §2, §3, §4

Take `NCCc1ccc(S(=O)(=O)F)cc1` [AEBSF]: the “% Reduction in ADP-based Specific Activity” value was −14.98% in test [1] (Mg assay), −4.73% in test [1] (Mn assay), −39.50% in test [2] (Mg assay) and −15.43% in test [2] (Mn assay). In addition, the “% Reduction in Glutamine-based Specific Activity” value in test [1] (Mg assay) is −8.43%; in test [1] (Mn assay), −2.23%; in test [2] (Mg assay), −1.70%; in test [2] (Mn assay) it was −15.19%. Besides, the “% Conversion” value in test [1] (Mg assay) amounted to 82%; in test [1] (Mn assay), 94%; in test [2] (Mg assay), 83%; in test [2] (Mn assay) it was 115%. Besides, the “inhibition of the enzyme (in words)” value in test [2] is on record as “appeared to cause inhibition”.
Turning to `O=S(=O)(F)Cc1ccccc1` [PMSF], the “% Reduction in ADP-based Specific Activity” value in test [1] (Mg assay) was −6.07%; in test [1] (Mn assay) it was −3.53%; in test [2] (Mg assay), −17.31%; in test [2] (Mn assay), “+46.95%”. Besides, the “% Reduction in Glutamine-based Specific Activity” value was −16.55% in test [1] (Mg assay), −17.69% in test [1] (Mn assay), “+6.90%” in test [2] (Mg assay) and −22.73% in test [2] (Mn assay). Besides, the “% Conversion” value came to 67% in test [1] (Mg assay), 78% in test [1] (Mn assay), 66% in test [2] (Mg assay) and 61% in test [2] (Mn assay). The “inhibition of the enzyme (in words)” value in test [2] is recorded as “found to inhibit”.
